Among the data in patent US20210387968A1, “HETEROARYLMETHYLENE DERIVATIVES AS DNA POLYMERASE THETA INHIBITORS” (IDEAYA Biosciences, Inc., priority 2019, published 2021) are IC50 values, retold here.

The test has as its target T1, Pol theta polymerase domain (residues 1819-2590) (Homo sapiens, UniProt O75417).
T1 construct: Pol theta polymerase domain (residues 1819-2590) at a final concentration of 4 nM
T1 sequence (O75417 1819-2590): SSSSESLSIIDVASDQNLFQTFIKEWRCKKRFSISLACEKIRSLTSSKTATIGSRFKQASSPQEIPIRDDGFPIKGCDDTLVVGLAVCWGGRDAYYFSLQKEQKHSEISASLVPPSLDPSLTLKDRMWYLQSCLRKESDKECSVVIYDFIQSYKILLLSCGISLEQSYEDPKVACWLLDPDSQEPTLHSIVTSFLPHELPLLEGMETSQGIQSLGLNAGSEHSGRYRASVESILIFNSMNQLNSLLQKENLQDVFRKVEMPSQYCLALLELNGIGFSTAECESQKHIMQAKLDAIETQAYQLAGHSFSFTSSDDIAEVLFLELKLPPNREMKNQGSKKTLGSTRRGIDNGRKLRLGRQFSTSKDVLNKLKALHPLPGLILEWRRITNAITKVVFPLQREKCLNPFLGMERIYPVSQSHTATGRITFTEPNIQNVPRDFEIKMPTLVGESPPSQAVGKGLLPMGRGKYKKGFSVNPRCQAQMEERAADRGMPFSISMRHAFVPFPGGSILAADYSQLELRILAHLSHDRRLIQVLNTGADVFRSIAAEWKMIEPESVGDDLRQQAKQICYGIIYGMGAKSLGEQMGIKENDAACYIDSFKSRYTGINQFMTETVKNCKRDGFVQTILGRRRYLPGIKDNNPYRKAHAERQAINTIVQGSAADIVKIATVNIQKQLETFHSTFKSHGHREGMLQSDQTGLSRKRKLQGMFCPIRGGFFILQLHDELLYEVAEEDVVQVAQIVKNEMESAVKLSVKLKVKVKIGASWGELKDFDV
As to the kind of experiment: Pol theta polymerase primer extension assay (molecular beacon fluorescence). It counts as biochemical. Conditions: 4 nM enzyme, 15 min pre-incubation, fluorescence change over 30 min. The procedure:
The ability of the compounds of Formula (I) to inhibit polymerase activity of Pol theta was determined using the assay described below.
A mixture of 20 uL of Pol theta polymerase domain (residues 1819-2590) at a final concentration of 4 nM in assay buffer (20 m M TRIS, pH 7.80, 50 mM KCl, 10 mM MgCl2, 1 mM DTT, 0.01% BSA, 0.01% Tween20) was added to test compounds (11-point dilution series of test compounds) except the low control wells without test compounds. The above enzyme and test compound inhibitor mixture was then incubated at room temperature for 15 min. An equal volume (20 μl) of dNTP substrate mix (48 μM) and primed molecular beacon DNA (obtained by annealing template SEQ ID NO 2: (5′-CCTTCCTCCCGTGTCTTG-TACCTTCCCGTCA-GGAGGAAGG-3′) with 5′-TAMRA and 3′-BHQ and primer DNA (SEQ ID NO 3: 5′-GACGGGAAGG-3′) in 10 mM Tris-HCl pH 8.0, 100 mM NaCl buffer) (96 nM) in assay buffer was added to all the test wells. The inhibition activity was measured by monitoring the fluorescence change over 30 min at 535 nm upon excitation at 485 nm. The high control (DMSO with enzyme) with high fluorescence intensity represents no inhibition of polymerase reaction while the low control (DMSO with buffer) with low fluorescence intensity represents full inhibition of polymerase activity. Slope of the reaction progress curves were used to calculate the rate of polymerization. The rates were used to determine the percent inhibition using a four-parameter inhibition model to generate IC50, Hill slope and max inhibition.

pIC50: −log10 of the molar value.

Turning to “2-([[1-(4-fluorophenyl)-4- (trifluoromethyl)imidazol-2- yl]methyl]amino)-4,6- bis(trifluoromethyl)benzonitrile [compound 9]”, the pIC50 is > 6.70. For the compound `Cc1nc(OCc2nccn2-c2ccccc2)c(C#N)c(C)c1Cl` [compound 1, 5-chloro-4,6-dimethyl-2-((1-phenyl-1H-imidazol-2-yl)methoxy)-nicotinonitrile], the pIC50 was 6.00 to 6.30.

`Cc1nc(NCc2nccn2-c2ccccc2)c(C#N)c(C)c1Cl` [compound 2, 5-chloro-4,6-dimethyl-2-((1-phenyl-1H-imidazol-2-yl)methylamino)-nicotinonitrile]: the pIC50 was > 6.70. With `Cc1nc(NCc2nccn2-c2ccc(F)cc2)c(C#N)c(C)c1Cl` [compound 3, 5-chloro-2-(((1-(4-fluorophenyl)-1H-imidazol-2-yl)methyl)amino)-4,6-dimethyl-nicotinonitrile], the pIC50 is > 6.70.

Turning to `Fc1ccc(-n2ccnc2CNc2cc(Cl)cc(C(F)(F)F)c2)cc1` [compound 4, 3-chloro-N-((1-(4-fluorophenyl)-1H-imidazol-2-yl)methyl)-5-(trifluoromethyl)-benzenamine], the pIC50 was > 6.70. For `N#Cc1c(C(F)(F)F)cc(C(F)(F)F)nc1NCc1nccn1-c1ccc(F)cc1` [compound 5, 2-([[1-(4-fluorophenyl)-1H-imidazol-2-yl]methyl]amino)-4,6-bis(trifluoromethyl)-pyridine-3-carbonitrile] the value was > 6.70; for `COc1ccc(-n2ccnc2CNc2nc(C(F)(F)F)cc(C(F)(F)F)c2C#N)cc1` [compound 6, 2-([[1-(4-methoxyphenyl)-1H-imidazol-2-yl]methyl]amino)-4,6-bis(trifluoromethyl)-pyridine-3-carbonitrile], > 6.70; for `N#Cc1c(C(F)(F)F)cc(C(F)(F)F)nc1NCc1nccn1Cc1ccc(F)cc1` [compound 7, 2-[([1-[(4-fluorophenyl)methyl]-1H-imidazol-2-yl]methyl)amino]-4,6-bis-(trifluoromethyl)pyridine-3-carbonitrile], > 6.70. Next, `N#Cc1c(C(F)(F)F)cc(C(F)(F)F)nc1OCc1nccn1-c1ccc(F)cc1` [compound 8, 2-[[1-(4-fluorophenyl)-1H-imidazol-2-yl]methoxy]-4,6-bis(trifluoromethyl)-pyridine-3-carbonitrile]: > 6.70; `N#Cc1c(C(F)(F)F)cc(C(F)(F)F)nc1NCc1nccnc1-c1ccc(F)cc1` [compound 10, 2-((3-(4-fluorophenyl)pyrazin-2-yl)methylamino)-4,6-bis(trifluoromethyl)-nicotinonitrile]: > 6.70; `N#Cc1c(C(F)(F)F)cc(C(F)(F)F)nc1NCc1ncncc1-c1ccc(F)cc1` [compound 11, 2-((5-(4-fluorophenyl)pyrimidin-4-yl)methylamino)-4,6-bis(trifluoromethyl)-nicotinonitrile]: > 6.70. In the case of `N#Cc1c(C(F)(F)F)cc(C(F)(F)F)nc1NCc1nncn1-c1ccc(F)cc1` [compound 12, 2-((4-(4-fluorophenyl)-4H-1,2,4-triazol-3-yl)methylamino)-4,6-bis(trifluoromethyl)-nicotinonitrile], the negative-log IC50 (pIC50) is > 6.70. As to `CC(Nc1nc(C(F)(F)F)cc(C(F)(F)F)c1C#N)c1nccn1-c1ccc(F)cc1` (stereo not drawn) [compound 13, 2-([1-[1-(4-fluorophenyl)imidazol-2-yl]ethyl]amino)-4,6-bis(trifluoromethyl)pyridine-3-carbonitrile], the pIC50 is > 6.70. For `Cn1cc(-c2ccc(F)cc2)c(CNc2nc(C(F)(F)F)cc(C(F)(F)F)c2C#N)n1` [compound 14, 2-(((4-(4-fluorophenyl)-1-methyl-1H-pyrazol-3-yl)methyl)amino)-4,6-bis(trifluoromethyl)nicotinonitrile] the value was 5.00 to 6.00; for `N#Cc1c(C(F)(F)F)cc(C(F)(F)F)nc1NCc1n[nH]cc1-c1ccc(F)cc1` [compound 15, 2-(((4-(4-fluorophenyl)-1H-pyrazol-3-yl)methyl)amino)-4,6-bis(trifluoromethyl)-nicotinonitrile], 5.00 to 6.00; for `N#Cc1c(C(F)(F)F)cc(C(F)(F)F)nc1NCc1ncccc1-c1ccc(F)cc1` [compound 16, 2-(((3-(4-fluorophenyl)pyridin-2-yl)methyl)amino)-4,6-bis(trifluoromethyl)-nicotinonitrile], > 6.70. For `N#Cc1c(C(F)(F)F)cc(C(F)(F)F)nc1NCc1nccnc1-c1ccc(F)cc1Cl` [compound 17, 2-([[3-(2-chloro-4-fluorophenyl)-pyrazin-2-yl]methyl]amino)-4,6-bis(trifluoromethyl)pyridine-3-carbonitrile] the value was 6.00 to 6.30. In the case of `N#Cc1c(C(F)(F)F)cc(C(F)(F)F)nc1NCc1ncncc1-c1ccncc1` [compound 18, 2-([[5-(pyridin-4-yl)pyrimidin-4-yl]methyl]amino)-4,6-bis(trifluoro-methyl)pyridine-3-carbonitrile], the pIC50 was 5.00 to 6.00.

Regarding `N#Cc1c(C(F)(F)F)cc(C(F)(F)F)nc1OCc1ncccc1-c1ccc(F)cc1` [compound 19, 2-[[3-(4-fluorophenyl)pyridin-2-yl]methoxy]-4,6-bis(trifluoromethyl)pyridine-3-carbonitrile], the pIC50 is > 6.70. Next, `Cc1ccc(-c2ccc(F)cc2)c(CNc2nc(C(F)(F)F)cc(C(F)(F)F)c2C#N)n1` [compound 20, 2-([[3-(4-fluorophenyl)-6-methylpyridin-2-yl]methyl]amino)-4,6-bis(trifluoromethyl)pyridine-3-carbonitrile]: > 6.70; `N#Cc1c(C(F)(F)F)cc(C(F)(F)F)nc1NCc1nccnc1-c1ccccn1` [compound 21, 2-(((3-(pyridin-2-yl)pyrazin-2-yl)methyl)amino)-4,6-bis(trifluoromethyl)-nicotinonitrile]: 6.30 to 6.70; `N#Cc1c(C(F)(F)F)cc(C(F)(F)F)nc1NCc1ncccc1-c1ccccn1` [compound 22]: > 6.70. For `N#Cc1c(C(F)(F)F)cc(C(F)(F)F)nc1NCc1nc(O)ccc1-c1ccc(F)cc1` [compound 23, 2-([[3-(4-fluorophenyl)-6-oxo-1H-pyridin-2-yl]methyl]amino)-4,6-bis(trifluoro-methyl)pyridine-3-carbonitrile], the pIC50 was > 6.70. Next, `N#Cc1ccc(-c2ccc(F)cc2)c(CNc2nc(C(F)(F)F)cc(C(F)(F)F)c2C#N)n1` [compound 24, 6-([[3-cyano-4,6-bis(trifluoromethyl)pyridin-2-yl]amino]methyl)-5-(4-fluorophenyl)pyridine-2-carbonitrile]: > 6.70. Next, `N#Cc1c(C(F)(F)F)cc(C(F)(F)F)nc1NCc1ncccc1-c1ccc(Br)cc1` [compound 25, 2-([[3-(4-bromophenyl)pyridin-2-yl]methyl]amino)-4,6-bis(trifluoromethyl)-pyridine-3-carbonitrile]: > 6.70; `N#Cc1c(C(F)(F)F)cc(C(F)(F)F)nc1NCc1ncnn1-c1ccc(F)cc1` [compound 26, 2-(((1-(4-fluorophenyl)-1H-1,2,4-triazol-5-yl)methyl)amino)-4,6-bis(trifluoro-methyl)nicotinonitrile]: 6.30 to 6.70. For `COc1ccc(-c2ccc(F)cc2)c(CNc2nc(C(F)(F)F)cc(C(F)(F)F)c2C#N)n1` [compound 27, 2-([[3-(4-fluorophenyl)-6-methoxypyridin-2-yl]methyl]amino)-4,6-bis(trifluoromethyl)pyridine-3-carbonitrile] the value was 5.00 to 6.00.

As usually defined, the pIC50 is −log10 of the IC50, conventionally taken in molar units. High values mean a small IC50, low ones a large IC50.
